# Reference: patent US7118895B2, “Process for producing aglycon by using diglycosidase and flavor-improved food containing the aglycon and converting agent to be used in the process” (Amano Enzyme Inc., priority 2000, dated 2006)
# Test system: Crude diglycosidase
# Test: Examination of pH in the conversion into isoflavone aglycons by diglycosidase using soybean materials
# Format: biochemical, Penicillium multicolor IAM7153
# Set-up: Decomposition efficiency of genistin family in soymilk / Decomposition efficiency of genistin family in defatted soybean / Decomposition efficiency of daidzin family in defatted soybean: concentration or dose not given beside the values
# Conditions: for Decomposition efficiency of daidzin family in roasted soy flour: 55° C.
# Summary of the method: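 Soybean materials (roasted soy flour, soymilk, defatted soybean, concentrated soy protein) suspended and adjusted to pH 2–11. Crude diglycosidase added at 1.88 AU/mL enzyme solution and reacted at 55° C. Ethanol-stopped at 0, 1, 3 and 6 h; isoflavone glycosides and aglycons detected by HPLC.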
# [1] = pH4.8, heat treatment of enzyme: no, reaction time 0 h
# [2] = pH4.8, heat treatment of enzyme: no, reaction time 1 h
# [3] = pH4.8, heat treatment of enzyme: no, reaction time 3 h
# [4] = pH4.8, heat treatment of enzyme: no, reaction time 6 h
# [5] = pH4.8, heat treatment of enzyme: yes, reaction time 6 h
# [6] = pH6.6, heat treatment of enzyme: no, reaction time 0 h
# [7] = pH6.6, heat treatment of enzyme: no, reaction time 1 h
# [8] = pH6.6, heat treatment of enzyme: no, reaction time 3 h
# [9] = pH6.6, heat treatment of enzyme: no, reaction time 6 h
# [10] = pH6.6, heat treatment of enzyme: yes, reaction time 6 h
smiles,measurement,setting,value
O=c1c(-c2ccc(O)cc2)coc2cc(O)ccc12 [daidzein],Decomposition efficiency of daidzin family in concentrated soybean protein,"pH1.6, heat treatment of enzyme: no, reaction time 0 h",3.0%
same,Decomposition efficiency of daidzin family in concentrated soybean protein,"pH1.6, heat treatment of enzyme: no, reaction time 1 h",3.3%
same,Decomposition efficiency of daidzin family in concentrated soybean protein,"pH1.6, heat treatment of enzyme: no, reaction time 3 h",3.3%
same,Decomposition efficiency of daidzin family in concentrated soybean protein,"pH1.6, heat treatment of enzyme: no, reaction time 6 h",3.4%
same,Decomposition efficiency of daidzin family in concentrated soybean protein,"pH1.6, heat treatment of enzyme: yes, reaction time 6 h",2.9%
same,Decomposition efficiency of daidzin family in roasted soy flour,"pH2, heat treatment of enzyme no, reaction time 0 h",3.5
same,Decomposition efficiency of daidzin family in roasted soy flour,"pH2, heat treatment of enzyme no, reaction time 1 h",5.4
same,Decomposition efficiency of daidzin family in roasted soy flour,"pH2, heat treatment of enzyme no, reaction time 3 h",4.8
same,Decomposition efficiency of daidzin family in roasted soy flour,"pH2, heat treatment of enzyme no, reaction time 6 h",4.5
same,Decomposition efficiency of daidzin family in roasted soy flour,"pH2, heat treatment of enzyme yes, reaction time 6 h",3.8
same,Decomposition efficiency of daidzin family in soymilk,"pH2.3, heat treatment of enzyme: no, reaction time 0 h",10.5%
same,Decomposition efficiency of daidzin family in soymilk,"pH2.3, heat treatment of enzyme: no, reaction time 1 h",45.3%
same,Decomposition efficiency of daidzin family in soymilk,"pH2.3, heat treatment of enzyme: no, reaction time 3 h",48.9%
same,Decomposition efficiency of daidzin family in soymilk,"pH2.3, heat treatment of enzyme: no, reaction time 6 h",51.5%
same,Decomposition efficiency of daidzin family in soymilk,"pH2.3, heat treatment of enzyme: yes, reaction time 6 h",10.2%
same,Decomposition efficiency of daidzin family in defatted soybean,"pH2.6, heat treatment of enzyme: no, reaction time 0 h",13.2%
same,Decomposition efficiency of daidzin family in defatted soybean,"pH2.6, heat treatment of enzyme: no, reaction time 1 h",21.3%
same,Decomposition efficiency of daidzin family in defatted soybean,"pH2.6, heat treatment of enzyme: no, reaction time 3 h",40.9%
same,Decomposition efficiency of daidzin family in defatted soybean,"pH2.6, heat treatment of enzyme: no, reaction time 6 h",42.9%
same,Decomposition efficiency of daidzin family in defatted soybean,"pH2.6, heat treatment of enzyme: yes, reaction time 6 h",13.0%
same,Decomposition efficiency of daidzin family in concentrated soybean protein,"pH2.7, heat treatment of enzyme: no, reaction time 0 h",3.0%
same,Decomposition efficiency of daidzin family in concentrated soybean protein,"pH2.7, heat treatment of enzyme: no, reaction time 1 h",40.7%
same,Decomposition efficiency of daidzin family in concentrated soybean protein,"pH2.7, heat treatment of enzyme: no, reaction time 3 h",41.6%
same,Decomposition efficiency of daidzin family in concentrated soybean protein,"pH2.7, heat treatment of enzyme: no, reaction time 6 h",45.0%
same,Decomposition efficiency of daidzin family in concentrated soybean protein,"pH2.7, heat treatment of enzyme: yes, reaction time 6 h",3.2%
same,Decomposition efficiency of daidzin family in roasted soy flour,"pH3, heat treatment of enzyme no, reaction time 0 h",3.5
same,Decomposition efficiency of daidzin family in roasted soy flour,"pH3, heat treatment of enzyme no, reaction time 1 h",54.0
same,Decomposition efficiency of daidzin family in roasted soy flour,"pH3, heat treatment of enzyme no, reaction time 3 h",60.4
same,Decomposition efficiency of daidzin family in roasted soy flour,"pH3, heat treatment of enzyme no, reaction time 6 h",59.3
same,Decomposition efficiency of daidzin family in roasted soy flour,"pH3, heat treatment of enzyme yes, reaction time 6 h",3.7
same,Decomposition efficiency of daidzin family in defatted soybean,"pH3.4, heat treatment of enzyme: no, reaction time 0 h",13.2%
same,Decomposition efficiency of daidzin family in defatted soybean,"pH3.4, heat treatment of enzyme: no, reaction time 1 h",60.6%
same,Decomposition efficiency of daidzin family in defatted soybean,"pH3.4, heat treatment of enzyme: no, reaction time 3 h",65.5%
same,Decomposition efficiency of daidzin family in defatted soybean,"pH3.4, heat treatment of enzyme: no, reaction time 6 h",71.0%
same,Decomposition efficiency of daidzin family in defatted soybean,"pH3.4, heat treatment of enzyme: yes, reaction time 6 h",15.1%
same,Decomposition efficiency of daidzin family in soymilk,"pH3.5, heat treatment of enzyme: no, reaction time 0 h",10.5%
same,Decomposition efficiency of daidzin family in soymilk,"pH3.5, heat treatment of enzyme: no, reaction time 1 h",64.4%
same,Decomposition efficiency of daidzin family in soymilk,"pH3.5, heat treatment of enzyme: no, reaction time 3 h",84.9%
same,Decomposition efficiency of daidzin family in soymilk,"pH3.5, heat treatment of enzyme: no, reaction time 6 h",92.6%
same,Decomposition efficiency of daidzin family in soymilk,"pH3.5, heat treatment of enzyme: yes, reaction time 6 h",10.6%
same,Decomposition efficiency of daidzin family in concentrated soybean protein,"pH3.7, heat treatment of enzyme: no, reaction time 0 h",3.0%
same,Decomposition efficiency of daidzin family in concentrated soybean protein,"pH3.7, heat treatment of enzyme: no, reaction time 1 h",58.4%
same,Decomposition efficiency of daidzin family in concentrated soybean protein,"pH3.7, heat treatment of enzyme: no, reaction time 3 h",67.0%
same,Decomposition efficiency of daidzin family in concentrated soybean protein,"pH3.7, heat treatment of enzyme: no, reaction time 6 h",74.8%
same,Decomposition efficiency of daidzin family in concentrated soybean protein,"pH3.7, heat treatment of enzyme: yes, reaction time 6 h",3.1%
same,Decomposition efficiency of daidzin family in roasted soy flour,"pH4, heat treatment of enzyme no, reaction time 0 h",3.5
same,Decomposition efficiency of daidzin family in roasted soy flour,"pH4, heat treatment of enzyme no, reaction time 1 h",65.6
same,Decomposition efficiency of daidzin family in roasted soy flour,"pH4, heat treatment of enzyme no, reaction time 3 h",79.5
same,Decomposition efficiency of daidzin family in roasted soy flour,"pH4, heat treatment of enzyme no, reaction time 6 h",88.9
same,Decomposition efficiency of daidzin family in roasted soy flour,"pH4, heat treatment of enzyme yes, reaction time 6 h",3.5
same,Decomposition efficiency of daidzin family in defatted soybean,[1],15.7%
same,Decomposition efficiency of daidzin family in soymilk,[1],9.0%
same,Decomposition efficiency of daidzin family in defatted soybean,[2],59.5%
same,Decomposition efficiency of daidzin family in soymilk,[2],52.6%
same,Decomposition efficiency of daidzin family in defatted soybean,[3],63.3%
same,Decomposition efficiency of daidzin family in soymilk,[3],66.1%
same,Decomposition efficiency of daidzin family in defatted soybean,[4],69.5%
same,Decomposition efficiency of daidzin family in soymilk,[4],79.7%
same,Decomposition efficiency of daidzin family in defatted soybean,[5],24.5%
same,Decomposition efficiency of daidzin family in soymilk,[5],9.1%
same,Decomposition efficiency of daidzin family in roasted soy flour,"pH5, heat treatment of enzyme no, reaction time 0 h",3.5
same,Decomposition efficiency of daidzin family in roasted soy flour,"pH5, heat treatment of enzyme no, reaction time 1 h",61.5
same,Decomposition efficiency of daidzin family in roasted soy flour,"pH5, heat treatment of enzyme no, reaction time 3 h",75.3
same,Decomposition efficiency of daidzin family in roasted soy flour,"pH5, heat treatment of enzyme no, reaction time 6 h",84.8
same,Decomposition efficiency of daidzin family in roasted soy flour,"pH5, heat treatment of enzyme yes, reaction time 6 h",4.4
same,Decomposition efficiency of daidzin family in concentrated soybean protein,"pH5.1, heat treatment of enzyme: no, reaction time 0 h",3.0%
same,Decomposition efficiency of daidzin family in concentrated soybean protein,"pH5.1, heat treatment of enzyme: no, reaction time 1 h",56.6%
same,Decomposition efficiency of daidzin family in concentrated soybean protein,"pH5.1, heat treatment of enzyme: no, reaction time 3 h",63.0%
same,Decomposition efficiency of daidzin family in concentrated soybean protein,"pH5.1, heat treatment of enzyme: no, reaction time 6 h",68.8%
same,Decomposition efficiency of daidzin family in concentrated soybean protein,"pH5.1, heat treatment of enzyme: yes, reaction time 6 h",3.2%
same,Decomposition efficiency of daidzin family in defatted soybean,"pH5.4, heat treatment of enzyme: no, reaction time 0 h",15.7%
same,Decomposition efficiency of daidzin family in defatted soybean,"pH5.4, heat treatment of enzyme: no, reaction time 1 h",55.8%
same,Decomposition efficiency of daidzin family in defatted soybean,"pH5.4, heat treatment of enzyme: no, reaction time 3 h",58.5%
same,Decomposition efficiency of daidzin family in defatted soybean,"pH5.4, heat treatment of enzyme: no, reaction time 6 h",63.1%
same,Decomposition efficiency of daidzin family in defatted soybean,"pH5.4, heat treatment of enzyme: yes, reaction time 6 h",55.1%
same,Decomposition efficiency of daidzin family in soymilk,"pH6.2, heat treatment of enzyme: no, reaction time 0 h",9.0%
same,Decomposition efficiency of daidzin family in soymilk,"pH6.2, heat treatment of enzyme: no, reaction time 1 h",45.9%
same,Decomposition efficiency of daidzin family in soymilk,"pH6.2, heat treatment of enzyme: no, reaction time 3 h",53.6%
same,Decomposition efficiency of daidzin family in soymilk,"pH6.2, heat treatment of enzyme: no, reaction time 6 h",58.1%
same,Decomposition efficiency of daidzin family in soymilk,"pH6.2, heat treatment of enzyme: yes, reaction time 6 h",9.7%
same,Decomposition efficiency of daidzin family in roasted soy flour,"pH6.5, heat treatment of enzyme no, reaction time 0 h",3.4
same,Decomposition efficiency of daidzin family in roasted soy flour,"pH6.5, heat treatment of enzyme no, reaction time 1 h",54.6
same,Decomposition efficiency of daidzin family in roasted soy flour,"pH6.5, heat treatment of enzyme no, reaction time 3 h",60.8
same,Decomposition efficiency of daidzin family in roasted soy flour,"pH6.5, heat treatment of enzyme no, reaction time 6 h",65.6
same,Decomposition efficiency of daidzin family in roasted soy flour,"pH6.5, heat treatment of enzyme yes, reaction time 6 h",4.7
same,Decomposition efficiency of daidzin family in concentrated soybean protein,[6],3.0%
same,Decomposition efficiency of daidzin family in defatted soybean,[6],13.2%
same,Decomposition efficiency of daidzin family in concentrated soybean protein,[7],51.0%
same,Decomposition efficiency of daidzin family in defatted soybean,[7],54.1%
same,Decomposition efficiency of daidzin family in concentrated soybean protein,[8],57.1%
same,Decomposition efficiency of daidzin family in defatted soybean,[8],56.0%
same,Decomposition efficiency of daidzin family in concentrated soybean protein,[9],58.8%
same,Decomposition efficiency of daidzin family in defatted soybean,[9],58.2%
same,Decomposition efficiency of daidzin family in concentrated soybean protein,[10],3.2%
same,Decomposition efficiency of daidzin family in defatted soybean,[10],49.5%
same,Decomposition efficiency of daidzin family in soymilk,"pH7.2, heat treatment of enzyme: no, reaction time 0 h",9.0%
same,Decomposition efficiency of daidzin family in soymilk,"pH7.2, heat treatment of enzyme: no, reaction time 1 h",43.6%
same,Decomposition efficiency of daidzin family in soymilk,"pH7.2, heat treatment of enzyme: no, reaction time 3 h",47.6%
same,Decomposition efficiency of daidzin family in soymilk,"pH7.2, heat treatment of enzyme: no, reaction time 6 h",51.8%
same,Decomposition efficiency of daidzin family in soymilk,"pH7.2, heat treatment of enzyme: yes, reaction time 6 h",10.2%
same,Decomposition efficiency of daidzin family in defatted soybean,"pH7.8, heat treatment of enzyme: no, reaction time 0 h",13.3%
same,Decomposition efficiency of daidzin family in defatted soybean,"pH7.8, heat treatment of enzyme: no, reaction time 1 h",43.1%
same,Decomposition efficiency of daidzin family in defatted soybean,"pH7.8, heat treatment of enzyme: no, reaction time 3 h",48.4%
same,Decomposition efficiency of daidzin family in defatted soybean,"pH7.8, heat treatment of enzyme: no, reaction time 6 h",51.9%
same,Decomposition efficiency of daidzin family in defatted soybean,"pH7.8, heat treatment of enzyme: yes, reaction time 6 h",21.7%
same,Decomposition efficiency of daidzin family in roasted soy flour,"pH8.5, heat treatment of enzyme no, reaction time 0 h",3.8
same,Decomposition efficiency of daidzin family in roasted soy flour,"pH8.5, heat treatment of enzyme no, reaction time 1 h",36.9
same,Decomposition efficiency of daidzin family in roasted soy flour,"pH8.5, heat treatment of enzyme no, reaction time 3 h",46.4
same,Decomposition efficiency of daidzin family in roasted soy flour,"pH8.5, heat treatment of enzyme no, reaction time 6 h",51.8
same,Decomposition efficiency of daidzin family in roasted soy flour,"pH8.5, heat treatment of enzyme yes, reaction time 6 h",3.9
same,Decomposition efficiency of daidzin family in concentrated soybean protein,"pH8.6, heat treatment of enzyme: no, reaction time 0 h",3.2%
same,Decomposition efficiency of daidzin family in concentrated soybean protein,"pH8.6, heat treatment of enzyme: no, reaction time 1 h",9.9%
same,Decomposition efficiency of daidzin family in concentrated soybean protein,"pH8.6, heat treatment of enzyme: no, reaction time 3 h",15.9%
same,Decomposition efficiency of daidzin family in concentrated soybean protein,"pH8.6, heat treatment of enzyme: no, reaction time 6 h",27.4%
same,Decomposition efficiency of daidzin family in concentrated soybean protein,"pH8.6, heat treatment of enzyme: yes, reaction time 6 h",3.2%
same,Decomposition efficiency of daidzin family in soymilk,"pH11.6, heat treatment of enzyme: no, reaction time 0 h",8.7%
same,Decomposition efficiency of daidzin family in soymilk,"pH11.6, heat treatment of enzyme: no, reaction time 1 h",43.6%
same,Decomposition efficiency of daidzin family in soymilk,"pH11.6, heat treatment of enzyme: no, reaction time 3 h",49.6%
same,Decomposition efficiency of daidzin family in soymilk,"pH11.6, heat treatment of enzyme: no, reaction time 6 h",52.3%
same,Decomposition efficiency of daidzin family in soymilk,"pH11.6, heat treatment of enzyme: yes, reaction time 6 h",9.3%
